Source: patent US12264134B2 (Merck Sharp & Dohme LLC, priority 2018, dated 2025)

Key:
IDO1 [1] = biological target: T1, IDO1 (Homo sapiens, UniProt P14902); experiment: IDO1 Cellular Assay in HeLa Cells Stimulated with IFNγ; format: cell-based; conditions: read-out: HeLa Cell Potency, IC50
IDO1 [2] = biological target: T1, IDO1; experiment: IDO1 Human Whole blood Assay; format: cell-based; design: Human whole blood was drawn in sodium heparin coated tubes from healthy internal donors; from tissue; host or cells: human whole blood from healthy donors, stimulated with LPS and IFNγ; conditions: LPS and IFNγ stimulated, 18 h, read-out: Human Whole Blood Potency, IC50
Protocol: IDO1Human Whole blood Assay
Compounds to be tested were serially diluted in ten 3-fold steps in DMSO starting from 10 mM. 3 μL of compound dilutions or DMSO alone were then dispensed from the dilution plate into a polypropylene 96-well assay plate containing 97 μL of RPMI medium using an Echo 555 acoustic liquid handler (Labcyte). LPS and IFNγ was prepared in RPMI medium to a 10× of final conc. (1000 ng/mL), final concentration is 100 ng/mL.
Human whole blood was drawn in sodium heparin coated tubes from healthy internal donors. 240 μL of blood was transferred to each of the wells of a v-bottom 96 well plate. 30 μL of compound was transferred from intermediate dilution plate, and incubated for 15 min. 30 μL from stimulants was then transferred to blood and mixed thoroughly. Plate was covered with breathable membrane and incubated at 37° C. for overnight (18 h).
On day 2, isotope labeled standard solutions of kynurenine and tryptophan was made in water at 10× concentration and 30 μL was added to the blood at 3 μM final concentration. The assay plates were centrifuged at 300×G for 10 min with no brake to separate plasma from red blood cells. 60 μL of plasma samples was removed without disturbing red blood cells. Plasma was diluted with RPMI in 1:1 ratio and proteins were precipitated out with two volumes of Acetonitrile. The plates were centrifuged at 4000×G for 60 min. 20 μL of supernatant was carefully transferred to a 384 well plate containing 40 μL of 0.1% formic acid in water and analyzed by LC/MS/MS.
LC/MS/MS analyses were performed using Thermo Fisher's LX4-TSQ Quantum Ultra system. This system consists of four Agilent binary high-performance liquid chromatography (HPLC) pumps and a TSQ Quantum Ultra triple quadrupole MS/MS instrument. For each sample, 5 μL were injected onto an Atlantis T3 column (2.1 mm×150 mm, 3 μm particle size) from Waters. The mobile phase gradient pumped at 0.8 mL/min was used to elute the analytes from the column at 25° C. The elution started at 0% B increasing linearly to 25% B at 6.5 min, holding at 25% for 1 min, re-equilibrating to 10 min. Mobile phase A consisted of 0.1% formic acid in water. Mobile phase B consisted of 0.1% of formic acid in acetonitrile. Data were acquired in positive mode using a HESI interface. The operational parameters for the TSQ Quantum Ultra instrument were a spray voltage of 4000 V, capillary temperature of 380° C., vaporizer temperature 400° C., shealth gas 60 arbitrary units, Aux gas 20 arbitrary units, tube lens 85 and collision gas 1.2 mTorr. SRM chromatograms of kynurenine (Q1: 209.2>Q3:94.0) and internal standard (Q1: 215.3>Q3:98.2) were collected for 90 sec. The peak area was integrated by Xcalibur Quan software. The ratios between the kynurenine generated in the reaction and 2D6-Kynurenine spiked-in internal standard were used to generate percentage inhibition and IC50 values. Compounds were titrated and IC50's were calculated by 4 parameter sigmoidal curve fitting formula.

T1 sequence (P14902 whole entry): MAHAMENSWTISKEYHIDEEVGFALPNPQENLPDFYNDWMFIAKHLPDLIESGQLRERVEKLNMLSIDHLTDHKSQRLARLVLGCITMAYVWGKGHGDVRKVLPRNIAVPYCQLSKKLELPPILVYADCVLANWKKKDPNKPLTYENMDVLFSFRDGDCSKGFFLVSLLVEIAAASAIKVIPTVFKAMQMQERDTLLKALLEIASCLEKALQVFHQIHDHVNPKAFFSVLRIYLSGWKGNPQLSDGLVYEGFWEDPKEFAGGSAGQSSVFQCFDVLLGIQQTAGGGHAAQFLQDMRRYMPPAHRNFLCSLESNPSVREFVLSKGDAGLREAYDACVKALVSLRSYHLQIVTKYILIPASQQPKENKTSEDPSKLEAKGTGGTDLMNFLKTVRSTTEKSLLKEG

Cc1cccc(N2CCN(C(=O)Cn3nc(C(=O)N4CCC(O)C(F)C4)c4c3CCC4)C3(CC3)C2)c1C (single isomer, unassigned) [Example 394, 1-(7-(2,3-dimethylphenyl)-4,7-diazaspiro[2.5]octan-4-yl)-2-(3-(3-fluoro-4-hydroxypiperidine-1-carbonyl)-5,6-dihydrocyclopenta[c]pyrazol-1(4H)-yl)ethanone] showed an IC50 (IDO1 [1]) of 7.2 nM and an IC50 (IDO1 [2]) of 904 nM.
Work on Cc1cccc(N2CCN(C(=O)Cn3nc(C(=O)N4CCC(O)C(F)C4)c4c3CCC4)C3(CC3)C2)c1C (single isomer, unassigned) [Example 395, 1-(7-(2,3-dimethylphenyl)-4,7-diazaspiro[2.5]octan-4-yl)-2-(3-(3-fluoro-4-hydroxypiperidine-1-carbonyl)-5,6-dihydrocyclopenta[c]pyrazol-1(4H)-yl)ethanone] yielded an IC50 (IDO1 [1]) of 6.86 nM and an IC50 (IDO1 [2]) of 4160 nM.
Cc1cccc(N2CCN(C(=O)Cn3nc(C(=O)N4CCC(O)C(F)C4)c4c3CCC4)C3(CC3)C2)c1C (single isomer, unassigned) [Example 396, 1-(7-(2,3-dimethylphenyl)-4,7-diazaspiro[2.5]octan-4-yl)-2-(3-(3-fluoro-4-hydroxypiperidine-1-carbonyl)-5,6-dihydrocyclopenta[c]pyrazol-1(4H)-yl)ethanone] was tested, and the IC50 (IDO1 [1]) was 4.08 nM and the IC50 (IDO1 [2]) was 625 nM.
Cc1cccc(N2CCN(C(=O)Cn3nc(C(=O)N4CC[C@@H](O)[C@@H](F)C4)c4c3CC(F)C4)CC2)c1C (single isomer, unassigned) [Example 418] showed an IC50 (IDO1 [1]) of 31.7 nM and an IC50 (IDO1 [2]) of 2470 nM.
In the case of Cc1cccc(N2CCN(C(=O)Cn3nc(C(=O)N4CC[C@@H](O)[C@@H](F)C4)c4c3CC(F)C4)CC2)c1C (single isomer, unassigned) [Example 419], the IC50 (IDO1 [1]) is reported as 10.8 nM and the IC50 (IDO1 [2]) is reported as 1150 nM.
Cc1c(F)ccc(N2CCN(C(=O)Cn3nc(C(=O)N4CCC(O)C(CO)C4)c4c3C[C@@H]3C[C@H]43)C3(CC3)C2)c1C (stereo in doubt) [Example 324, 1-[7-(4-fluoro-2,3-dimethylphenyl)-4,7-diazaspiro[2.5]octan-4-yl]-2-{(3bS,4aS)-3-[4-hydroxy-3-(hydroxymethyl)piperidine-1-carbonyl]-3b,4,4a,5-tetrahydro-1H-cyclopropa[3,4]cyclopenta[1,2-c]pyrazol-1-yl}ethan-1-one] gave an IC50 (IDO1 [1]) of 0.64 nM and an IC50 (IDO1 [2]) of 555 nM.
For Cc1cccc(N2CCN(C(=O)Cn3nc(C(=O)N4CCCC4)c4c3CCC4)CC2)c1C [Example 1, 1-(4-(2,3-dimethylphenyl)piperazin-1-yl)-2-(3-(pyrrolidine-1-carbonyl)-5,6-dihydrocyclopenta[c]pyrazol-1(4H)-yl)ethanone], the IC50 (IDO1 [1]) was 8.75 nM and the IC50 (IDO1 [2]) was 1820 nM.
With Cc1cccc(N2CCN(C(=O)Cn3nc(C(=O)N4CCCC4)c4c3CCCC4)CC2)c1C [Example 2, 1-[4-(2,3-dimethylphenyl)piperazin-4-ium-1-yl]-2-[3-(pyrrolidine-1-carbonyl)-4,5,6,7-tetrahydroindazol-1-yl]ethanone] the IC50 (IDO1 [1]) was 4.88 nM and the IC50 (IDO1 [2]) was 555 nM.
Molecule Cc1cccc(N2CCN(C(=O)Cn3nc(C(=O)N4CCCC4)c4c3CCCCC4)CC2)c1C [Example 5, 1-[4-(2,3-dimethylphenyl)piperazin-4-ium-1-yl]-2-[3-(pyrrolidine-1-carbonyl)-5,6,7,8-tetrahydro-4H-cyclohepta[c]pyrazol-1-yl]ethanone] has an IC50 (IDO1 [1]) of 6.83 nM and an IC50 (IDO1 [2]) of 414 nM.
Cc1c(F)ccc(N2CCN(C(=O)Cn3nc(C(=O)N4C[C@@H](C)O[C@@H](C)C4)c4c3CCC4)CC2)c1C [Example 48, 2-{3-[(2R,6S)-2,6-dimethylmorpholine-4-carbonyl]-5,6-dihydrocyclopenta[c]pyrazol-1(4H)-yl}-1-[4-(4-fluoro-2,3-dimethylphenyl)piperazin-1-yl]ethan-1-one] showed an IC50 (IDO1 [1]) of 2.93 nM and an IC50 (IDO1 [2]) of 492 nM.
